Measurements: the supplement of paper PMC13380429
Where a name gives a salt, the structure may show the parent alone. ± gives the standard deviation of the averaged measurements.

Columns and labels:
Conditions in all cases: 72 h
[1] = tested on: Vero E6; experiment: relative viability EC50 (midpoint between 100% and the lowest measured viability); higher = less toxic
[2] = tested on: U2OS; experiment: as above
[3] = tested on: HepG2; experiment: as above
[4] = tested on: Vero E6; experiment: drug sensitivity score (DSS) for viability; higher = more toxic; extreme values may be limits of the assay
[5] = tested on: U2OS; experiment: as above
[6] = tested on: Calu-3; experiment: as above
[7] = tested on: HepG2; experiment: as above
[8] = tested on: Caco-2; experiment: as above
[9] = tested on: Vero E6; experiment: cell viability relative to DMSO; higher = less toxic
[10] = tested on: U2OS; experiment: as above
[11] = tested on: Calu-3; experiment: as above
[12] = tested on: HepG2; experiment: as above
[13] = tested on: Caco-2; experiment: as above
[14] = tested on: Caco-2; experiment: relative viability EC50 (midpoint between 100% and the lowest measured viability); higher = less toxic

SMILES | relative viability EC50 [1] [µM] | relative viability EC50 [2] [µM] | relative viability EC50 [3] [µM] | drug sensitivity score [4] | drug sensitivity score [5] | drug sensitivity score [6] | drug sensitivity score [7] | drug sensitivity score [8] | cell viability ([9]; 1 nM) [%] | cell viability ([9]; 10 nM) [%] | cell viability ([9]; 100 nM) [%] | cell viability ([9]; 1000 nM) [%] | cell viability ([9]; 10000 nM) [%] | cell viability ([10]; 1 nM) [%] | cell viability ([10]; 10 nM) [%] | cell viability ([10]; 100 nM) [%] | cell viability ([10]; 1000 nM) [%] | cell viability ([10]; 10000 nM) [%] | cell viability ([11]; 1 nM) [%] | cell viability ([11]; 10 nM) [%] | cell viability ([11]; 100 nM) [%] | cell viability ([11]; 1000 nM) [%] | cell viability ([11]; 10000 nM) [%] | cell viability ([12]; 1 nM) [%] | cell viability ([12]; 10 nM) [%] | cell viability ([12]; 100 nM) [%] | cell viability ([12]; 1000 nM) [%] | cell viability ([12]; 10000 nM) [%] | cell viability ([13]; 1 nM) [%] | cell viability ([13]; 10 nM) [%] | cell viability ([13]; 100 nM) [%] | cell viability ([13]; 1000 nM) [%] | cell viability ([13]; 10000 nM) [%] | relative viability EC50 [14] [µM]
CCN1CCN(Cc2ccc(Nc3ncc(F)c(-c4cc(F)c5nc(C)n(C(C)C)c5c4)n3)nc2)CC1 [abemaciclib] | 1.35 | 2.16 | 0.741 | 6.1 | 7.6 | 8.1 | 12.5 | 4.2 | 101 | 100 | 95.3 | 77.9 | 38 | 107 | 107 | 108 | 87.6 | 0.1 | 106 | 108 | 89.4 | 63 | 74.7 | 101 | 94.8 | 84.1 | 47.1 | 0.9 | 109 | 97.2 | 90.7 | 78.8 | 67.8 | –
CS(=O)(=O)c1ccc(Oc2cc(F)cc(C#N)c2)c2c1[C@H](O)C(F)(F)C2 [PT-2385] | > 10 | > 10 | > 10 | 0 | 0 | – | 0 | 1.7 | 101 | 99.6 | 100 | 96.9 | 105 | 103 | 97.3 | 98.7 | 100 | 99.4 | – | – | – | – | – | 103 | 107 | 97.4 | 97.2 | 104 | 102 | 94.9 | 88.9 | 86.3 | 95.2 | > 10
CN[C@H]1CN(c2ccc3c(=O)c(C(=O)O)cn(-c4nccs4)c3n2)C[C@@H]1OC [voreloxin] | – | 2.93 | 1.29 | 4 | 3.6 | 4.1 | 6.9 | 3.7 | 96.9 | 96.2 | 96.7 | 88.1 | 56.1 | 100 | 97.6 | 103 | 98 | 38.3 | 101 | 98.9 | 104 | 85.6 | 58.9 | 90.7 | 108 | 88.5 | 72.6 | 29.1 | 94.1 | 93.2 | 99.9 | 91.6 | 55.1 | –
O=C(CCBr)N1CCN(C(=O)CCBr)CC1 [pipobroman] | – | > 10 | > 10 | – | 0 | – | 0 | 0 | – | – | – | – | – | 97.8 | 104 | 99.7 | 97.7 | 94 | – | – | – | – | – | 90.2 | 112 | 101 | 83.7 | 102 | 115 | 115 | 97.3 | 114 | 99 | > 10
O=C(CCCN1CC=C(n2c(=O)[nH]c3ccccc32)CC1)c1ccc(F)cc1 [droperidol] | – | – | > 10 | – | – | – | 0 | – | – | – | – | – | – | – | – | – | – | – | – | – | – | – | – | 116 | 113 | 106 | 108 | 89.1 | – | – | – | – | – | –
N#Cc1c(Oc2ccc(F)c(NC(=O)Cc3cccc(C(F)(F)F)c3)c2)ccc2nc(NC(=O)C3CC3)sc12 [TAK-632] | 1.37 | 3.05 | 0.289 | 6.8 | 3.5 | 3 | 14.9 | 3.8 | 100 | 106 | 104 | 79 | 32.3 | 97.9 | 102 | 94.8 | 99 | 37.8 | 105 | 105 | 110 | 93 | 61.6 | 99.9 | 106 | 85.1 | 29 | 17.2 | 100 | 99.4 | 91.8 | 84.9 | 55.6 | –
O=C(O)c1cc(=O)c2c(OCC(O)COc3cccc4oc(C(=O)O)cc(=O)c34)cccc2o1 [cromoglicic-acid] | > 10 | > 10 | > 10 | 0 | 0 | – | 0 | 0 | 100 | 101 | 101 | 96.6 | 100 | 96.4 | 99.4 | 98.4 | 103 | 96.9 | – | – | – | – | – | 101 | 95.3 | 104 | 105 | 101 | 97 | 100 | 98.6 | 102 | 92.3 | > 10
O=C(O)c1c(Cl)c(Cl)c(Cl)c(Cl)c1-c1c2cc(I)c(=O)c(I)c-2oc2c(I)c(O)c(I)cc12 [rose-bengal] | – | – | – | 3.7 ± 0.42 | 3.6 ± 0.42 | 3 ± 1.4 | 3.8 ± 0.85 | 4.6 ± 0.14 | 97.6 ± 4 | 99.6 | 101 ± 3 | 90.5 ± 0.42 | 57.1 ± 5.8 | 99.5 ± 3 | 101 ± 7.5 | 98.8 ± 0.28 | 92.65 ± 0.49 | 54 ± 5.6 | 96 ± 5.7 | 96.7 ± 3.9 | 97.2 ± 4.7 | 97.8 ± 12 | 54.4 ± 0.71 | 98.5 ± 1.1 | 92.7 ± 7 | 102 ± 3.8 | 86.2 ± 5.3 | 61.6 ± 4.2 | 96.1 ± 5.2 | 93.7 ± 6.9 | 98.4 ± 7.9 | 83.3 ± 0.92 | 52.2 ± 6.1 | –
COc1cc(OC)c(/C=C2/C(=O)Nc3ccccc32)c(OC)c1 [IC261] | 0.991 | 1.58 | 2.24 | 7.2 | 5.4 | 2.4 | 4.6 | 3.7 | 99 | 99.2 | 102 | 69.2 | 39.1 | 95 | 99.8 | 98.5 | 86 | 41.6 | 90.1 | 97 | 95.9 | 96.7 | 61.8 | 97.5 | 102 | 108 | 92.9 | 37.1 | 96.9 | 92.9 | 95.1 | 90.5 | 57.6 | –
O=C(O)[C@H](O)c1ccccc1 [mandelic-acid] | > 10 | > 10 | > 10 | 0 | 0 | – | 0 | 0 | 100 | 99.1 | 93.8 | 97.3 | 98.9 | 98.7 | 100 | 99.3 | 106 | 94.8 | – | – | – | – | – | 110 | 96.7 | 103 | 96.4 | 102 | 91.9 | 84.2 | 104 | 94.4 | 91.6 | > 10
NC[C@@H]1O[C@H](O[C@@H]2[C@@H](CO)OC(O[C@@H]3[C@@H](O)[C@H](N)C[C@H](N)[C@H]3OC3O[C@H](CN)[C@@H](O)[C@H](O)[C@H]3N)[C@@H]2O)[C@H](N)[C@@H](O)[C@@H]1O (stereo partly drawn) [NEOMYCIN TRISULFATE] | – | – | – | – | – | – | – | 0 | – | – | – | – | – | – | – | – | – | – | – | – | – | – | – | – | – | – | – | – | 96.6 | 103 | 96.3 | 91.7 | 97.3 | > 10
Cc1c(C)c2c(c(C)c1OC(=O)CCC(=O)O)CC[C@@](C)(CCC[C@H](C)CCC[C@H](C)CCCC(C)C)O2 [D-alpha-tocopheryl-succinate] | > 10 | – | > 10 | 0 | – | – | 0 | 0 | 97.8 | 101 | 97.9 | 102 | 111 | – | – | – | – | – | – | – | – | – | – | 95.4 | 109 | 95.3 | 106 | 113 | 98.2 | 104 | 106 | 96.5 | 102 | > 10
N=c1ccn2c(n1)O[C@H]1[C@H](O)[C@@H](CO)O[C@H]12 [Cyclocytidine HCl] | – | – | 0.115 | 4 | 1.4 | 2.7 | 15 | 3.7 | 98.1 | 97.1 | 98.5 | 87.4 | 58.3 | 95.1 | 99.9 | 99.8 | 97.2 | 74.8 | 91.5 | 99.2 | 101 | 93 | 65.9 | 104 | 103 | 74.1 | 38 | 37.7 | 88.4 | 99.2 | 83.1 | 80.6 | 77.8 | > 10
